The values below come from a melting point compilation (Tetko et al.; mined from patent text by program, amines drawn as free bases though some values may be those of a salt).

One may read the melting point as the temperature of the solid-liquid transition.

`CC(C)=CCOc1ccc(C(=O)C=Cc2cccs2)c(O)c1` registered a melting point of 100 to 102 °C. `O=C(CC1CCCCCC1)Nc1cn(CCO)c2cccc(Cl)c12` displayed a melting point of 79 to 83 °C. `Nc1ccccc1N1CCN(CC(O)COc2cccc3c2CCCC3)CC1` (stereo not drawn) came in with a melting point of 103 to 104 °C.

On to `CN1C2C=C(c3ccc(Cl)c(Cl)c3)CC1CC2` (stereo not drawn), for which the melting point is 44 to 52 °C. The result for `CN1CCN2c3ccccc3Cn3c(c(CO)c4ccccc43)C2C1` (stereo not drawn) reads 184 to 189 °C. The result for `CCCCC1(CCCC)CCc2c(OCc3ccccn3)cccc2C1O` (stereo not drawn) reads 106 to 107 °C; that for `CCOC(=O)c1cc2ccccc2n1C`, 62 to 64 °C; that for `COC(=O)C(Sc1ccccc1)c1ccc(I)cc1` (stereo not drawn), 62.5 to 65 °C. The result for `FC(F)(F)c1n[nH]c(-c2nc3ccccc3[nH]2)n1` reads 247 °C; that for `Cc1cccc(C(C)C)c1NC(=O)Nc1c(C)nc(-c2ccccc2)nc1-c1ccccc1Cl`, 266 to 267 °C.

In turn, `O=c1[nH]c2ccccc2n1CCCN1CCC(O)(c2ccc(Cl)cc2)CC1` returned a melting point of 134 °C. Take `OC(CCCN1CCN(c2ncc(F)cn2)CC1)(c1ccc(F)cc1)C1CCCCC1` (stereo not drawn): the melting point is 53 to 59 °C. Take `COc1cccc(-c2ccc3cc(OC)ccc3c2Oc2ccc(C=O)cc2)c1`: the melting point was 145 to 146 °C. The result for `Fc1ccc2c(c1)Sc1ccc(C(F)(F)F)cc1C2=C1CCNCC1` reads 125 to 130 °C. In the case of `CCN1c2ncc(CCc3cccc(N)c3)cc2C(=O)N(C)c2ccc(Cl)nc21`, the melting point was 121 to 123 °C.

`COc1ccccc1NC(=O)Nc1nc(O)ncc1F` gave a melting point of 247 to 250 °C. As for `COc1ccc(/C=C/c2ccccn2)cc1OC1CCCC1`, the melting point was in the range of 76 to 77.5 °C. The result for `Cn1nnnc1-c1cn(C)c2cc(C#N)ccc2c1=O` reads 301 to 303 °C.

Regarding `Cc1cc(-c2ccc(C#N)cc2)c(C)n1Cc1cnc(Cl)c(CO)c1`, the melting point lay within 128 to 129 °C. The result for `CCSc1c(N)cnc2cc(Cl)ccc12` reads 105 to 106 °C. The result for `O=C1NC2CCC(=O)N2[C@H]1Cc1ccccc1` (stereo partly drawn) reads 141 to 145 °C. The result for `CC1=CCC(NC(=O)NS(=O)(=O)c2ccc(CCNC(=O)N3CCC(C)CC3=O)cc2)CC1` (stereo not drawn) reads 173 to 175 °C; that for `CC(=O)c1cc(C(F)(F)F)nn1-c1ccc(NC(=O)c2ccccc2F)cc1`, 188 to 189 °C; that for `C=CCON=Cc1nc(-c2ccc(Cl)c(Cl)c2Cl)cn1S(=O)(=O)N(C)C`, 87 to 88 °C. Regarding `CCOC(=O)C=Cc1cncc(OCc2ccccc2)c1`, the melting point was in the range of 76 to 77 °C.

`CS(=O)(=O)c1ccc(-c2cnn(Cc3ccc4cc(F)ccc4n3)c(=O)c2-c2ccc(F)cc2)cc1` displayed a melting point of 116 to 119 °C. Turning to `Cc1ccc(S(=O)(=O)C[N+](=O)[O-])s1`, the melting point was 73 to 74 °C. In the case of `CN1CC=C(c2c[nH]c3ccc(NC(=S)NC(=O)c4ccccc4)cc23)CC1`, the melting point was 182 to 184 °C. The result for `Cc1cc2c3c(c1N)c(=O)c(C(=O)O)cn3C(C)CC2` (stereo not drawn) reads 264 to 266 °C.

Take `CC(C)[C@H](NC(=O)[C@@H](CSC(=O)c1ccccc1)SC(=O)c1ccccc1)C(=O)N1CCC[C@H]1C(=O)O`: the melting point was 85 to 93 °C. The result for `COc1ccc(N2CCN(c3ccc(NC4=NC(C)(C)CS4)cc3)CC2)cc1` reads 232 °C; that for `O=C1CCCc2nc3cc(F)ccc3c(NCc3ccccc3C(F)(F)F)c21`, 146 to 151 °C; that for `CC(C)(C)OC(=O)N1CCc2c(n(CCOc3ccccc3)c3ccc(Cl)c(Cl)c23)CC1`, 175 to 176 °C. The result for `Cc1cc(NC(=O)c2ccccc2O)cc(Cl)c1O` reads 192 to 194 °C. The result for `O=C(O)c1cc2c(-c3cccs3)nccc2[nH]c1=O` reads 278 °C; that for `CC(=O)Nc1nc(CCc2ccc(NC(=O)OC(C)(C)C)cc2)c(C(=O)O)s1`, 237 to 238 °C. Compound `CC(=O)NC[C@H]1CN(c2ccc3c(c2)CCOC3)C(=O)O1` displayed a melting point of 142 to 145 °C. `COCCOc1cc2ncnc(NC3=CC(=O)C(Oc4ccc(-n5ccnc5)cc4)=CC3=O)c2cc1OCCOC` yielded a melting point of 109 to 115 °C. The result for `CCCCCCCCCCCCSc1cc(SCCCCCCCCCCCC)c([N+](=O)[O-])c(C(=O)O)c1` reads 74 to 77 °C. The result for `COc1ccc(C(=O)N2CCN(c3ccc(N)c(C=CC(=O)O)c3)CC2)cc1OC` reads 168 to 170 °C; that for `CCCC[C@@H](NC(=O)[C@H](Cc1ccc(O)cc1)NC(=O)OC(C)(C)C)C(=O)NCC(=O)O`, 174 to 175 °C; that for `COc1ccc(C2=C(CC(C)N(C)C(C)C)C(=O)NCCC2)cc1` (stereo not drawn), 86 to 88 °C. `O=C(Nc1ccccc1S(=O)(=O)c1ccccc1)N[C@@H](Cc1ccc(Oc2nccc3cnccc23)cc1)C(=O)O` gave a melting point of 136 °C. The result for `O=c1c2cc(F)c(Cl)nc2n(Cc2ccccc2)c(=O)n1OCc1ccccc1` reads 209 to 210 °C.

In the case of `NC(c1ccco1)P(O)O` (stereo not drawn), the melting point stood at 221 °C.

Take `N#Cc1ccc(-c2ccc(Cl)nn2)cc1`: the melting point was in the range of 236 to 238 °C.

On to `CCC[C@H](NC(=O)[C@H](C)N)C(=O)N[C@@H](C)P(=O)(O)O`, for which the melting point fell in the range of 268 to 270 °C. The result for `N#Cc1cc(=O)n(-c2c(Cl)cc(C(F)(F)F)cc2Cl)[nH]1` reads 198 to 201 °C; that for `Cc1cc(N2CC=C(C(N)=O)CC2)c2c(C)c(C)n(-c3ccc(Cl)cc3Cl)c2n1`, 265 to 267 °C. The result for `CC(C)(C)OC(=O)N1CCC(OCc2ccccc2)C1CC(O)Cn1cnc2ccc(F)c(F)c2c1=O` (stereo not drawn) reads 218 °C; that for `O=c1oc(-c2ccccc2)cc(O)c1CCCc1ccccc1`, 195 to 196 °C; that for `CCn1c(Cl)nc2cc(C(F)(F)F)c(Cl)c(N)c21`, 134 to 142 °C. The result for `O=C(O)CN1C(=O)C(=Cc2ccc(OCc3ccccc3)c(OCc3ccc(F)c(F)c3)c2)SC1=S` reads 231 to 236 °C. For `CC(C)(C)OC(=O)NC(C)(C)c1ccc(-c2nc(Nc3ccc(CCn4ccnc4)cc3)ncc2C#N)cc1`, the melting point is 124 °C. The compound `CC(=O)OC1CSC(Oc2cccc(I)c2)C(OC(C)=O)C1OC(C)=O` (stereo not drawn) registered a melting point of 127 °C. The result for `CNC(=O)Nc1ccc(F)cc1Cl` reads 174 to 178 °C; that for `CCOC(=O)COc1cc2onc(-c3ccccc3F)c2cc1Br`, 130 to 132 °C; that for `CCOC(=O)[C@H](Cc1ccc(-c2c(OC)cc(COS(C)(=O)=O)cc2OC)cc1)NC(=O)c1c(Cl)cccc1Cl`, 109 °C. The result for `CCCCCCc1ncc(C(=O)O)s1` reads 73 °C; that for `CC1(C)Oc2ccc(Cl)cc2C12NC(=O)NC2=O` (stereo not drawn), 228 to 229 °C. The result for `CCOC(=O)c1csc2cc(Oc3ccnc(N)n3)ccc12` reads 144 to 145 °C; that for `CC(=O)Nc1c(Cl)cc2c(=O)c(C(=O)O)cn3c2c1CCC3C` (stereo not drawn), 234 to 236 °C; that for `Cc1ccc(S(=O)C2CC3C(=O)C(c4ccc(F)cc4)=CC2N3C)cc1` (mixture of isomers), 186 °C.
